Results on nine molecules are retold here after publication PMC7795354, “Development of Radiogallium-Labeled Peptides for Platelet-Derived Growth Factor Receptor β (PDGFRβ) Imaging: Influence of Different Linkers” (Molecules, 2020).

“And” between values parts separate entries of the source, which are not always exact repeats. Identical values can stand only once. Like-named read-outs stand apart in the source and are kept apart here. *1 amine or outer side, *2 acyl side, *3 side chain or, on linkers, in order; H or OH if unused. Where a SMILES comes first, the peptide text is derived from it. Where no end group is shown, it is not given here. [ ]: non-standard residue; d: D form. The star is where a group is joined. DOTA = O=C(O)CN1CCN(CC(=O)O)CCN(CC(=O)*)CCN(CC(=O)O)CC1; NH(CH2CH2O)4CH2CO = O=C(COCCOCCOCCOCCN[*:1])[*:2]; βAla = NCCC(=O)O

For data set [1] the following is noted: buffer.
Protocol: (§3) Briefly, the solution of radiotracers (37 kBq/well, 50 µL) in a sealed tube containing 0.1 M PBS pH 7.4 (450 µL) was incubated at 37 °C for 24 h. At 3 and 24 h after incubation, the purity of radiotracers was analyzed by RP-HPLC. Meanwhile, for stability assay in murine plasma, radiotracers were mixed in murine plasma at a ratio of 1:10. After incubation at 37 °C for 10 min and 1 h, an equivalent amount of ice-cold acetonitrile was added. After centrifugation at 1000× g at 4 °C for 10 min, the supernatant was filtered through a 0.45-µm filter followed by analyzing using RP-HPLC as described above. Then, the radiochemical purities were determined.
The conditions of data set [2]: mouse, 1 h.
Protocol: as §3
A short description of a further data set: in vitro. The note with it: mouse, plasma, In vitro stability in murine plasma, percentage of remained intact radiotracer.
The next data set is described as follows: physchem. The note with it: pH 7.4.
Data set [3] is described as follows: In vitro stability in PBS pH 7.4. The note with it: 37 °C, 0.1 M PBS pH 7.4.
Protocol: as §3
Data set [4] can be described thus: In vitro stability in murine plasma. The settings on record: 37 °C.
Protocol: as §3
Data set [5] can be described thus: Octanol-water partition coefficient (log P), shake-flask. The settings on record: n-octanol/PBS, pH 7.4.
Protocol: (§4) The octanol-water partition coefficients for radiotracers were determined via the assessment of their distribution in n-octanol and PBS (pH 7.4) using shake-flask method as described previously [48]. Radioactivity of each layer was measured using auto well gamma counter (n = 4).
Data set [6] is described as follows: Biodistribution in BxPC3-luc tumor-bearing mice. It counts as in vivo, BALB/c nu/nu mice. The note with it: female, BALB/c nu/nu, mouse, iv, 74 kBq, total radioactivity, 1 h post-injection; for tissue uptake at 1 h: i.v. The procedure:
(§1) All animal handling procedures were approved by the Kanazawa University Animal Care Committee. Experiments with animals were conducted in accordance with the Guidelines for the Care and Use of Laboratory Animals of Kanazawa University. The animals were housed with free access to food and water at 23 °C with a 12 h light/dark schedule. Four-week-old female BALB/c nu/nu mice (12–17 g) were purchased from Japan SLC Inc. (Hamamatsu, Japan). The tumor-bearing model was prepared by subcutaneous inoculation of 1 × 10^7 BxPC3-luc cells into left shoulder of female BALB/c nu/nu mice. The biodistribution experiment was performed approximately 4–5 weeks post-inoculation.
(§2) A saline solution of [^67Ga]27 or [^67Ga]28 (74 kBq, 100 µL) was injected intravenously into the tail vein of the mice. The mice were sacrificed at 10 min post-injection for [^67Ga]27 and 1 h post-injection for [^67Ga]27 or [^67Ga]28. For in vivo blocking studies, 100 μL of a mixed saline solution of [^67Ga]27 (74 kBq) and IPLPPPRRPFFK peptide (1 mg/mouse) was injected via tile vein into the tumor-bearing mice. The mice were sacrificed at 1 h post-injection. Tissues of interest were removed and weighed. The radioactivity of the tissues was determined using an auto well gamma counter, and counts were corrected for background radiation and physical decay during counting. The data were expressed as percent injected dose per gram tissue (%ID/g).

Data set [7] concerns BxPC3-luc tumor-bearing mice. Briefly: Biodistribution in BxPC3-luc tumor-bearing mice. The data set is classed as in vivo, BALB/c nu/nu mice. The note with it: 1 h post-injection, i.v. The procedure: as §1, §2
A short description of data set [8]: Biodistribution in BxPC3-luc tumor-bearing mice. The data set is classed as in vivo. The note with it: female, BALB/c nu/nu, mouse, stomach, iv, 74 kBq, total radioactivity; 1 h post-injection.
The subject of a further data set is PDGFRβ. The settings on record: cited from earlier work.
Setting [9] is: mouse, plasma, In vitro stability in murine plasma, percentage of remained intact radiotracer, 1 h.

Protocol for physchem: as §4

One may read the fraction remaining as the share of the starting amount still present when the sample was taken. High values mean greater stability, low ones a greater loss. A word on the logP: it is the decadic logarithm of the partition coefficient of the neutral form, usually between octanol and water. A low value points to a more hydrophilic compound. `CC[C@H](C)[C@H](NC(=O)CN1CCN(CC(=O)O)CCN(CC(=O)O)CCN(CC(=O)O)CC1)C(=O)N1CCC[C@H]1C(=O)N[C@@H](CC(C)C)C(=O)N1CCC[C@H]1C(=O)N1CCC[C@H]1C(=O)N1CCC[C@H]1C(=O)N[C@@H](CCCNC(=N)N)C(=O)N[C@@H](CCCNC(=N)N)C(=O)N1CCC[C@H]1C(=O)N[C@@H](Cc1ccccc1)C(=O)N[C@@H](Cc1ccccc1)C(=O)N[C@@H](CCCCN)C(=O)O` [[^67Ga]22, [^67Ga]Ga-DOTA-IPLPPPRRPFFK, metal not drawn] ({DOTA}-IPLPPPRRPFFK-OH): the figures for the “In vitro stability in PBS pH 7.4, percentage of remained intact radiotracer” value in data set [1] (3 h) and in data set [1] (24 h) were 95.3 ± 2.7% and 94.1 ± 0.6%, respectively. The “In vitro stability in murine plasma, percentage of remained intact radiotracer” value in data set [2] turned out to be 35.2 ± 1.7%. This molecule also displayed a share remaining at 1 h in the data set “in vitro” of 35%. The same molecule came in with a logP in “physchem” below -4.
As to `CC[C@H](C)[C@H](NC(=O)[C@@H](C)NC(=O)[C@@H](C)NC(=O)[C@@H](C)NC(=O)CN1CCN(CC(=O)O)CCN(CC(=O)O)CCN(CC(=O)O)CC1)C(=O)N1CCC[C@H]1C(=O)N[C@@H](CC(C)C)C(=O)N1CCC[C@H]1C(=O)N1CCC[C@H]1C(=O)N1CCC[C@H]1C(=O)N[C@@H](CCCNC(=N)N)C(=O)N[C@@H](CCCNC(=N)N)C(=O)N1CCC[C@H]1C(=O)N[C@@H](Cc1ccccc1)C(=O)N[C@@H](Cc1ccccc1)C(=O)N[C@@H](CCCCN)C(=O)O` [[^67Ga]23, [^67Ga]Ga-DOTA-aaa-IPLPPPRRPFFK, metal not drawn] ({DOTA}-[dA][dA][dA]IPLPPPRRPFFK-OH), the “In vitro stability in PBS pH 7.4, percentage of remained intact radiotracer” value in [3] (3 h) is on record as 95.9 ± 0.7%; in [3] (24 h), 94.0 ± 0.5%. For the same molecule, the fraction remaining at 1 h in data set [4] (setting [9]) came to 15.7 ± 2.9%. In addition, the logP in data set [5] was below -4.
On the same counts, the results for `CC[C@H](C)[C@H](NC(=O)[C@@H](C)NC(=O)[C@@H](C)NC(=O)[C@@H](C)NC(=O)[C@@H](C)NC(=O)[C@@H](C)NC(=O)CN1CCN(CC(=O)O)CCN(CC(=O)O)CCN(CC(=O)O)CC1)C(=O)N1CCC[C@H]1C(=O)N[C@@H](CC(C)C)C(=O)N1CCC[C@H]1C(=O)N1CCC[C@H]1C(=O)N1CCC[C@H]1C(=O)N[C@@H](CCCNC(=N)N)C(=O)N[C@@H](CCCNC(=N)N)C(=O)N1CCC[C@H]1C(=O)N[C@@H](Cc1ccccc1)C(=O)N[C@@H](Cc1ccccc1)C(=O)N[C@@H](CCCCN)C(=O)O` [[^67Ga]24, [^67Ga]Ga-DOTA-aaaaa-IPLPPPRRPFFK, metal not drawn] ({DOTA}-[dA][dA][dA][dA][dA]IPLPPPRRPFFK-OH) are 96.3 ± 1.1%, 94.0 ± 0.5%, 41.4 ± 2.5% and below -4.
On the same counts, the results for `CC[C@H](C)[C@H](NC(=O)CCNC(=O)CCNC(=O)CN1CCN(CC(=O)O)CCN(CC(=O)O)CCN(CC(=O)O)CC1)C(=O)N1CCC[C@H]1C(=O)N[C@@H](CC(C)C)C(=O)N1CCC[C@H]1C(=O)N1CCC[C@H]1C(=O)N1CCC[C@H]1C(=O)N[C@@H](CCCNC(=N)N)C(=O)N[C@@H](CCCNC(=N)N)C(=O)N1CCC[C@H]1C(=O)N[C@@H](Cc1ccccc1)C(=O)N[C@@H](Cc1ccccc1)C(=O)N[C@@H](CCCCN)C(=O)O` [[^67Ga]25, [^67Ga]Ga-DOTA-ββ-IPLPPPRRPFFK, metal not drawn] ({DOTA-βAla-βAla}-IPLPPPRRPFFK-OH) are 94.2 ± 1.7%, 93.0 ± 0.4%, 26.2 ± 6.7% and below -4.
`CC[C@H](C)[C@H](NC(=O)CCNC(=O)CCNC(=O)CCNC(=O)CCNC(=O)CN1CCN(CC(=O)O)CCN(CC(=O)O)CCN(CC(=O)O)CC1)C(=O)N1CCC[C@H]1C(=O)N[C@@H](CC(C)C)C(=O)N1CCC[C@H]1C(=O)N1CCC[C@H]1C(=O)N1CCC[C@H]1C(=O)N[C@@H](CCCNC(=N)N)C(=O)N[C@@H](CCCNC(=N)N)C(=O)N1CCC[C@H]1C(=O)N[C@@H](Cc1ccccc1)C(=O)N[C@@H](Cc1ccccc1)C(=O)N[C@@H](CCCCN)C(=O)O` [[^67Ga]26, [^67Ga]Ga-DOTA-ββββ-IPLPPPRRPFFK, metal not drawn] ({DOTA-βAla-βAla-βAla-βAla}-IPLPPPRRPFFK-OH): the entries for the “In vitro stability in PBS pH 7.4, percentage of remained intact radiotracer” value in data set [3] (3 h) and in [3] (24 h) were 96.9 ± 0.3% and 95.4 ± 0.2%, respectively. In data set [4] (setting [9]), this molecule gave an amount remaining at 1 h of 33.1 ± 5.7%. The logP in data set [5] is below -4.
Consider `CC[C@H](C)[C@H](NC(=O)COCCOCCOCCOCCNC(=O)CN1CCN(CC(=O)O)CCN(CC(=O)O)CCN(CC(=O)O)CC1)C(=O)N1CCC[C@H]1C(=O)N[C@@H](CC(C)C)C(=O)N1CCC[C@H]1C(=O)N1CCC[C@H]1C(=O)N1CCC[C@H]1C(=O)N[C@@H](CCCNC(=N)N)C(=O)N[C@@H](CCCNC(=N)N)C(=O)N1CCC[C@H]1C(=O)N[C@@H](Cc1ccccc1)C(=O)N[C@@H](Cc1ccccc1)C(=O)N[C@@H](CCCCN)C(=O)O` [[^67Ga]28, [^67Ga]Ga-DOTA-EG4-IPLPPPRRPFFK, metal not drawn] ({DOTA}-[NH(CH2CH2O)4CH2CO]IPLPPPRRPFFK-OH), for which the tissue uptake at 1 h in data set [6] (blood, read-out: Biodistribution, Blood) turned out to be 0.12 %ID/g; in [6] (bone, read-out: Biodistribution, Bone), 0.1 %ID/g; in data set [6] (heart, read-out: Biodistribution, Heart) it was 0.03 %ID/g; in data set [6] (BxPC3-luc tumor, read-out: Biodistribution, Tumor) it was 0.25 %ID/g; in data set [6] (kidney, read-out: Biodistribution, Kidney) it was 2.96 %ID/g; in [6] (large intestine, read-out: Biodistribution, Large intestine), 0.11 %ID/g. The tissue uptake at 1 h in data set [6] (liver, read-out: Biodistribution, Liver) worked out at 0.2 %ID/g; in data set [6] (lung, read-out: Biodistribution, Lung), 0.18 %ID/g; in data set [6] (muscle, read-out: Biodistribution, Muscle) it was 0.03 %ID/g; in data set [6] (pancreas, read-out: Biodistribution, Pancreas), 0.07 %ID/g; in data set [6] (small intestine, read-out: Biodistribution, Small intestine) it was 0.34 %ID/g; in data set [6] (spleen, read-out: Biodistribution, Spleen), 0.07 %ID/g. Also, in data set [6] (tumor/blood), the tissue to tissue ratio at 1 h is 2.05. Also, in data set [7], the “Biodistribution, Brain” value is reported as 0.00 (0.00) %injected dose/gram tissue. Further, in [7], the Tumor/Blood ratio is 2.05 and 2.05 ± 0.77. Further, the tissue uptake dose at 1 h in data set [8] is 0.01 %ID. The “In vitro stability in PBS pH 7.4, percentage of remained intact radiotracer” value was 96.9 ± 0.2% in data set [3] (3 h) and 94.3 ± 0.3% in [3] (24 h). The “In vitro stability in murine plasma, percentage of remained intact radiotracer” value in data set [4] (1 h, 60 min) is 80.1 ± 0.8%. Further, the fraction remaining at 10 min in data set [4] (mouse, plasma, In vitro stability in murine plasma, percentage of remained intact radiotracer, 10 min) worked out at 96.2 ± 1.1%. This molecule also displayed an amount remaining at 1 h in [4] (setting [9]) above 75%. In data set [5], this molecule gave a logP below -4.
The IC50 is the point on the concentration scale where inhibition reaches its midpoint. Take IPLPPPRRPFFK: in the data set on PDGFRβ (affinity for PDGFRβ), the IC50 is 480 nM.
For “IPLPPPSRPFFK [PDGFR-P1, linear dodecapeptide targeting PDGFRβ identified by biopanning]”, the IC50 with PDGFRβ (targeting PDGFRβ) was 1400 nM.
As to “yIPLPPPRRPFFK ([dY]IPLPPPRRPFFK) [yG2, … with tyrosine at the N-terminal for radioiodination]”, the “Affinity for the PDGFRβ relative to IPLPPPSRPFFKY (PDGFR-P1)” value in the data set on PDGFRβ (higher affinity) is 16 times.
